Laboratory results published in patent US8415475B2, “Antibacterial quinoline derivatives” (Janssen Pharmaceutica N.V., priority 2006, dated 2013).
In brackets after ≈: the same amount, converted by molar mass.

Experiments:
[1] = tested on: Streptococcus pneumoniae (ATCC6305); assay: In-vitro anti-bacterial microtitre plate assay, IC90, S. pneumoniae; assay type: cell-based; settings: 90% inhibitory concentration for bacterial growth, resazurin fluorescence; for IC90 values SPN 1 6305: 24 hours; for IC90: Streptococcus pneumoniae, ATCC6305, 24 h, read-out: IC90 values SPN 1 6305
Method: (§1) D.3. In-Vitro Method for Testing Compounds for Anti-Bacterial Activity Against Various Non-Mycobacterial Strains The bacteria used in this study were grown overnight in flasks containing 100 ml Mueller-Hinton Broth (Becton Dickinson-cat. no. 275730) in sterile de-ionized water, with shaking, at 37° C. Stocks (0.5 ml/tube) were stored at -70° C. until use. Bacteria titrations were performed in microtiter plates to detect the TCID50, in which the TCID50 represents the dilution that gives rise to bacterial growth in 50% of inoculated cultures. In general, an inoculum level of approximately 100 TCID50 was used for susceptibility testing. Flat-bottom, sterile 96-well plastic microtiter plates were filled with 180 μl of sterile deionized water, supplemented with 0.25% BSA. Subsequently, stock solutions (7.8× final test concentration) of compounds were added in 45 μl volumes in column 2. Serial five-fold dilutions (45 μl in 180 μl) were made directly in the microtiter plates from column 2 to reach column 11. Untreated control samples with (column 1) and without (column 12) inoculum were included in each microtiter plate. Depending on the bacteria type, approximately 10 to 60 CFU per well of bacteria inoculum (100 TCID50), in a volume of 100 μl in 2.8× Mueller-Hinton broth medium, was added to the rows […]. The same volume of broth medium without inoculum was added to column 12 in row A to H. The cultures were incubated at 37° C. for 24 hours under a normal atmosphere (incubator with open air valve and continuous ventilation). At the end of incubation, one day after inoculation, the bacterial growth was quantitated fluorometrically. Therefore resazurin (0.6 mg/ml) was added in a volume of 20 μl to all wells 3 hours after inoculation, and the plates were re-incubated overnight. A change in colour from blue to pink indicated the growth of bacteria. The fluorescence was read in a computer-controlled fluorometer (Cytofluor Biosearch) at an excitation wavelength of 530 nm and an emission wavelength of 590 nm. The % growth inhibition achieved by the compounds was calculated according to standard methods.

[2] = tested on: Enterococcus faecalis (ATCC29212); assay: In-vitro anti-bacterial microtitre plate assay, IC90, E. faecalis; assay type: cell-based; settings: 90% inhibitory concentration for bacterial growth, resazurin fluorescence; for IC90: Enterococcus faecalis, ATCC29212, 24 h, read-out: IC90 values EFA 29212; for IC90 values EFA 29212: 24 hours
Method: as §1

[3] = tested on: Staphylococcus aureus (ATCC29213); assay: In-vitro anti-bacterial microtitre plate assay, IC90, S. aureus; assay type: cell-based; settings: 90% inhibitory concentration for bacterial growth, resazurin fluorescence; for IC90: Staphylococcus aureus, ATCC29213, 24 h, read-out: IC90 values STA 1 B29213; for IC90 values STA 1 B29213: 24 hours
Method: as §1

M. Smegmatis (ATCC607) = assay: In-vitro anti-bacterial activity against strain M. smegmatis ATCC607; assay type: cell-based; settings: 90% inhibitory concentration for bacterial growth, Alamar Blue fluorescence; for IC90 values MSM 1 ATCC607: 48 hours; for IC90: Mycolicibacterium smegmatis, ATCC607, 48 h, read-out: IC90 values MSM 1 ATCC607
Method: D.2. In-Vitro Method for Testing Compounds for Anti-Bacterial Activity Against Strain M. smegmatis ATCC607. Flat-bottom, sterile 96-well plastic microtiter plates were filled with 180 μl of sterile deionized water, supplemented with 0.25% BSA. Subsequently, stock solutions (7.8× final test concentration) of compounds were added in 45 μl volumes to a series of duplicate wells in column 2 so as to allow evaluation of their effects on bacterial growth. Serial five-fold dilutions (45 μl in 180 μl) were made directly in the microtiter plates from column 2 to 11 using a customised robot system (Zymark Corp., Hopkinton, Mass.). Pipette tips were changed after every 3 dilutions to minimize pipetting errors with high hydrophobic compounds. Untreated control samples with (column 1) and without (column 12) inoculum were included in each microtiter plate. Approximately 250 CFU per well of bacteria inoculum, in a volume of 100 μl in 2.8× Mueller-Hinton broth medium, was added to the rows […]. The same volume of broth medium without inoculum was added to column 12 in row A to H. The cultures were incubated at 37° C. for 48 hours in a humidified 5% CO2 atmosphere (incubator with open air valve and continuous ventilation). At the end of incubation, two days after inoculation, the bacterial growth was quantitated fluorometrically. Therefore Alamar Blue (10×) was added to all wells in a volume of 20 μl and plates were incubated for another 2 hours at […] The fluorescence was read in a computer-controlled fluorometer (Cytofluor, Biosearch) at an excitation wavelength of 530 nm and an emission wavelength of 590 nm (gain 30).

[4] = tested on: Streptococcus pyogens (ATCC8668); assay: In-vitro anti-bacterial microtitre plate assay, IC90, S. pyogens; assay type: cell-based; settings: 90% inhibitory concentration for bacterial growth, resazurin fluorescence; for IC90: Streptococcus, ATCC8668, 24 h, read-out: IC90 values SPY 8668; for IC90 values SPY 8668: 24 hours
Method: as §1

[5] = tested on: Escherichia coli (ATCC35218); assay: In-vitro anti-bacterial microtitre plate assay, IC90, E. coli; assay type: cell-based; settings: 90% inhibitory concentration for bacterial growth, resazurin fluorescence; for IC90: Escherichia coli, ATCC35218, 24 h, read-out: IC90 values ECO 35218; for IC90 values ECO 35218: 24 hours
Method: as §1

[6] = tested on: Pseudomonas aeruginosa (ATCC27853); assay: In-vitro anti-bacterial microtitre plate assay, IC90, P. aeruginosa; assay type: cell-based; settings: 90% inhibitory concentration for bacterial growth, resazurin fluorescence; for IC90: Pseudomonas aeruginosa, ATCC27853, 24 h, read-out: IC90 values PAE 27853
Method: as §1

[7] = tested on: Mycobacterium tuberculosis (strain H37RV); assay: In-vitro method for testing compounds against M. tuberculosis; assay type: cell-based; settings: 90% inhibitory concentration for bacterial growth, 7 days, Middlebrook broth, resazurin fluorescence; for IC90: Mycobacterium tuberculosis, H37RV, 168 h, read-out: IC90 values MTB 1 H37RV

SMILES	IC90 values SPN 1 6305 [1]	IC90 [2]	IC90 [3]	IC90 values MSM 1 ATCC607 (M. Smegmatis (ATCC607))	IC90 [4]	IC90 [5]	IC90 values STA 1 B29213 [3]	IC90 [6]	IC90 [7]	IC90 values EFA 29212 [2]	melting point	IC90 values SPY 8668 [4]	IC90 values MTB 1 H37RV [7]	IC90 [1]	IC90 (M. Smegmatis (ATCC607))	IC90 values ECO 35218 [5]	IC90 values PAE 27853 ([6]; 24 hours)
COc1nc2ccc(N3CCOCC3)cc2cc1C(c1ccccc1)C(O)(CCN(C)C)c1ccccc1 (single isomer, unassigned) [Compound 5]	9.1 µg/mL (≈ 17.8 µM)	40.6 µg/mL (≈ 79.4 µM)	40.6 µg/mL (≈ 79.3 µM)	0.04 µg/mL (≈ 0.0782 µM)	40.6 µg/mL (≈ 79.4 µM)	51.2 µg/mL (≈ 100 µM)											
C=Cc1ccc2nc(OC)c(C(c3ccccc3)C(O)(CCN(C)C)c3cccc4ccccc34)cc2c1 (single isomer, unassigned) [Compound 8]	2.0 µg/mL (≈ 3.98 µM)	50.3 µg/mL (≈ 100 µM)			50.3 µg/mL (≈ 100 µM)	50.3 µg/mL (≈ 100 µM)	50.3 µg/mL (≈ 100 µM)	44.8 µg/mL (≈ 89.1 µM)	3.6 µg/mL (≈ 7.16 µM)								
C/C=C/c1ccc2nc(OC)c(C(c3ccccc3)C(O)(CCN(C)C)c3cccc4ccccc34)cc2c1 (single isomer, unassigned) [Compound 11]	1.8 µg/mL (≈ 3.48 µM)			0.01 µg/mL (≈ 0.0194 µM)			51.7 µg/mL (≈ 100 µM)	51.7 µg/mL (≈ 100 µM)		51.67 µg/mL (≈ 100 µM)	190 °C	51.67 µg/mL (≈ 100 µM)					
COc1nc2ccc(N)cc2cc1C(c1ccccc1)C(O)(CCN(C)C)c1cccc2ccccc12 (single isomer, unassigned) [Compound 15]	7.8 µg/mL (≈ 15.9 µM)			0.3 µg/mL (≈ 0.61 µM)			7.8 µg/mL (≈ 15.9 µM)				205 °C		1.6 µg/mL (≈ 3.25 µM)				
COc1nc2ccc(N)cc2cc1C(c1ccccc1)C(O)(CCN(C)C)c1cccc2ccccc12 (single isomer, unassigned) [Compound 16]	24.6 µg/mL (≈ 50 µM)			7.8 µg/mL (≈ 15.9 µM)			43.8 µg/mL (≈ 89.1 µM)						31.0 µg/mL (≈ 63.1 µM)				
COc1nc2ccc(CN)cc2cc1C(c1ccccc1)C(O)(CCN(C)C)c1cccc2ccccc12 (single isomer, unassigned) [Compound 17]	8.0 µg/mL (≈ 15.8 µM)			0.4 µg/mL (≈ 0.791 µM)			8.0 µg/mL (≈ 15.8 µM)		3.6 µg/mL (≈ 7.12 µM)								
COc1nc2ccc(/C=N/O)cc2cc1C(c1ccccc1)C(O)(CCN(C)C)c1cccc2ccccc12 (single isomer, unassigned) [Compound 23]	0.3 µg/mL (≈ 0.577 µM)	18.4 µg/mL (≈ 35.5 µM)		0.3 µg/mL (≈ 0.577 µM)	8.24 µg/mL (≈ 15.9 µM)	52 µg/mL (≈ 100 µM)	6.5 µg/mL (≈ 12.5 µM)	8.24 µg/mL (≈ 15.9 µM)	7.3 µg/mL (≈ 14 µM)		187 °C						
COc1nc2ccc(CNC(C)=O)cc2cc1C(c1ccccc1)C(O)(CCN(C)C)c1cccc2ccccc12 (single isomer, unassigned) [Compound 27]			34.6 µg/mL (≈ 63.2 µM)						21.8 µg/mL (≈ 39.8 µM)		203 °C			8.7 µg/mL (≈ 15.9 µM)	4.4 µg/mL (≈ 8.03 µM)		
COc1nc2ccc(C(=O)N(C)C)cc2cc1C(c1ccccc1)C(O)(CCN(C)C)c1cccc2ccccc12 (single isomer, unassigned) [Compound 28]			43.5 µg/mL (≈ 79.4 µM)						3.5 µg/mL (≈ 6.39 µM)					10.9 µg/mL (≈ 19.9 µM)	0.1 µg/mL (≈ 0.183 µM)		
COc1nc2ccc(C(=O)N3CCN(C)CC3)cc2cc1C(c1ccccc1)C(O)(CCN(C)C)c1cccc2ccccc12 (single isomer, unassigned) [Compound 31]			38 µg/mL (≈ 63 µM)						4.8 µg/mL (≈ 7.96 µM)		195 °C			10.7 µg/mL (≈ 17.8 µM)	0.4 µg/mL (≈ 0.664 µM)		
COc1nc2ccc(N3CCOCC3)cc2cc1C(c1ccccc1)C(O)(CCN(C)C)c1ccccc1 (single isomer, unassigned) [Compound 36]	51.2 µg/mL (≈ 100 µM)			8.1 µg/mL (≈ 15.8 µM)			51.2 µg/mL (≈ 100 µM)			51.2 µg/mL (≈ 100 µM)	190 °C	40.6 µg/mL (≈ 79.3 µM)				51.2 µg/mL (≈ 100 µM)	
C=Cc1ccc2nc(OC)c(C(c3ccccc3)C(O)(CCN(C)C)c3cccc4ccccc34)cc2c1 (stereo not drawn) [Compound 9]		50.3 µg/mL (≈ 100 µM)	50.3 µg/mL (≈ 100 µM)		50.3 µg/mL (≈ 100 µM)	50.3 µg/mL (≈ 100 µM)		50.3 µg/mL (≈ 100 µM)	0.2 µg/mL (≈ 0.398 µM)					0.3 µg/mL (≈ 0.597 µM)	0.003 µg/mL (≈ 0.00597 µM)		
COc1nc2ccc(CN)cc2cc1C(c1ccccc1)C(O)(CCN(C)C)c1cccc2ccccc12 (stereo not drawn) [Compound 18]	3.6 µg/mL (≈ 7.12 µM)			0.4 µg/mL (≈ 0.791 µM)			8.0 µg/mL (≈ 15.8 µM)			17.94 µg/mL (≈ 35.5 µM)		6.37 µg/mL (≈ 12.6 µM)	1.6 µg/mL (≈ 3.16 µM)			8.01 µg/mL (≈ 15.8 µM)	8.01 µg/mL (≈ 15.8 µM)
COc1nc2ccc(CN)cc2cc1C(c1ccccc1)C(O)(CCN(C)C)c1cccc2ccccc12 (stereo not drawn) [Compound 19]			8 µg/mL (≈ 15.8 µM)	1.6 µg/mL (≈ 3.16 µM)	8.01 µg/mL (≈ 15.8 µM)			8.01 µg/mL (≈ 15.8 µM)		40.17 µg/mL (≈ 79.4 µM)			8.0 µg/mL (≈ 15.8 µM)	1.8 µg/mL (≈ 3.56 µM)		40.17 µg/mL (≈ 79.4 µM)	
